# In patent publication US8541460B2, “PDK-1/Akt signaling inhibitors” (The Ohio State University, priority 2003, dated 2013):
# Key:
# [1] = tested on: phospho-473Ser Akt; experiment: Western blot of Akt and phospho-Akt in PC-3 cells; assay type: cell-based, human; conditions: 1 μM
# Method: Immunoblotting. The general procedure for the Western blot analysis of Akt and phospho-Akt is described as follows. Cells were washed in PBS, resuspended in SDS sample buffer sonicated by an ultrasonic sonicator for 5 sec, and boiled for 5 min. After brief centrifugation, equivalent protein concentrations from the soluble fractions were resolved in 10% SDS-polyacrylamide gels on a Minigel apparatus, and transferred to a nitrocellulose membrane using a semi-dry transfer cell. The transblotted membrane was washed three times with TBS containing 0.05% Tween 20 (TBST). After blocking with TBST containing 5% nonfat milk for 60 min., the membrane was incubated with the primary antibody at 1:1,000 dilution in TBST-5% low fat milk at 4° C. for 12 h, and was then washed three times with TBST. The membrane was probed with goat anti-rabbit IgG-HRP conjugates (1:1,000) for 1 h at room temperature, and was washed with TBST three times. The immunoblots were visualized by enhanced chemiluminescence.
# [2] = tested on: HCT-116; experiment: NCI DTP cell line screen (SRB), Colon Cancer; assay type: cell-based
# Method: (§1) Screening of compounds 70 and 71 against several cancer cell lines The human tumor cell lines of the cancer screening panel are grown in RPMI 1640 medium containing 5% fetal bovine serum and 2 mM L-glutamine. For a typical screening experiment, cells are inoculated into 96 well microtiter plates in 100 μL at plating densities ranging from 5,000 to 40,000 cells/well depending on the doubling time of individual cell lines. After cell inoculation, the microtiter plates are incubated at 37° C., 5% CO2, 95% air and 100% relative humidity for 24 h prior to addition of experimental drugs.
# (§2) After 24 h, two plates of each cell line are fixed in situ with TCA, to represent a measurement of the cell population for each cell line at the time of drug addition (Tz). Experimental drugs are solubilized in dimethyl sulfoxide at 400-fold the desired final maximum test concentration and stored frozen prior to use. At the time of drug addition, an aliquot of frozen concentrate is thawed and diluted to twice the desired final maximum test concentration with complete medium containing 50 μg/ml gentamicin. Additional four, 10-fold or ½ log serial dilutions are made to provide a total of five drug concentrations plus control. Aliquots of 100 μl of these different drug dilutions are added to the appropriate microtiter wells already containing 100 μl of medium, resulting in the required final drug concentrations.
# (§3) Following drug addition, the plates are incubated for an additional 48 h at 37° C., 5% CO2, 95% air, and 100% relative humidity. For adherent cells, the assay is terminated by the addition of cold TCA. Cells are fixed in situ by the gentle addition of 50 μl of cold 50% (w/v) TCA (final concentration, 10% TCA) and incubated for 60 minutes at 4° C. The supernatant is discarded, and the plates are washed five times with tap water and air dried. Sulforhodamine B (SRB) solution (100 μl) at 0.4% (w/v) in 1% acetic acid is added to each well, and plates are incubated for 10 minutes at room temperature. After staining, unbound dye is removed by washing five times with 1% acetic acid and the plates are air dried. Bound stain is subsequently solubilized with 10 mM trizma base, and the absorbance is read on an automated plate reader at a wavelength of 515 nm. For suspension cells, the methodology is the same except that the assay is terminated by fixing settled cells at the bottom of the wells by gently adding 50 μl of 80% TCA (final concentration, 16% TCA). Using the seven absorbance measurements [time zero, (Tz), control growth, (C), and test growth in the presence of drug at the five concentration levels (Ti)], the percentage growth is calculated at each of the drug concentrations levels. Percentage growth inhibition is calculated as: [(Ti−Tz)/(C−Tz)]×100 for concentrations for which Ti>/=Tz [(Ti−Tz)/Tz]×100 for concentrations for which Ti<Tz
# (§4) Three dose response parameters are calculated for each experimental agent. […] The drug concentration resulting in total growth inhibition (TGI) is calculated from Ti=Tz. […] Values are calculated for each of these three parameters if the level of activity is reached; however, if the effect is not reached or is exceeded, the value for that parameter is expressed as greater or less than the maximum or minimum concentration tested.
# (§5) The methods described were used to test compounds 70 and 71 on a panel of sixty cell lines under a screening service provided by the Developmental Therapeutics Program at the National Institutes of Health. Shown in FIG. 1C are 1, RPMI-8226 leukemia cells; 2; NCI-H322M non-small cell lung cancer cells; 3, HT29 colon cancer cells; 4, U251 CNS cancer cells; 5, SK-MEL-28 melanoma cancer cells; 6, SK-OV-3 ovarian cancer cells; 7, RXF 393 renal cancer cells; 8, PC-3 prostate cancer cells; 9, MDA-MB-231 breast cancer cells.
# [3] = tested on: SW-620; experiment: NCI DTP cell line screen (SRB), Colon Cancer; assay type: cell-based
# Method: as §1, §2, §3, §4, §5
# [4] = tested on: KM12; experiment: NCI DTP cell line screen (SRB), Colon Cancer; assay type: cell-based
# Method: as §1, §2, §3, §4, §5
# [5] = tested on: UACC-62; experiment: NCI DTP cell line screen (SRB), Melanoma; assay type: cell-based
# [6] = tested on: MCF7; experiment: NCI DTP cell line screen (SRB), Breast Cancer; assay type: cell-based, human
# Method: as §1, §2, §3, §4, §5
# [7] = tested on: MDA-MB-435; experiment: NCI DTP cell line screen (SRB), Breast Cancer; assay type: cell-based, human
# Method: as §1, §2, §3, §4, §5
structure (smiles),measurement,setting,value
"N=C(N)Nc1ccc(-n2nc(C(F)(F)F)cc2-c2ccc3c(ccc4ccccc43)c2)cc1 [Compound 71, 4-[5-(2-Phenanthrenyl)-3-(trifluoromethyl)-1H-pyrazol-1-yl]-phenyl-guanidine]",phospho-Akt level,[1],substantial decrease in the phospho-Akt level
same,GI50,[2],1290 nM
same,TGI,[2],2.55E−06
same,Mean Optical Densities,[2]; Log10 Concentration −4.0,0.058
same,Percent Growth,[2]; Log10 Concentration −4.0,−49%
same,Mean Optical Densities,[2]; Log10 Concentration −5.0,−0.022
same,Percent Growth,[2]; Log10 Concentration −5.0,−100%
same,Mean Optical Densities,[2]; Log10 Concentration −6.0,0.525
same,Percent Growth,[2]; Log10 Concentration −6.0,68%
same,Mean Optical Densities,[2]; Log10 Concentration −7.0,0.633
same,Percent Growth,[2]; Log10 Concentration −7.0,86%
same,Mean Optical Densities,[2]; Log10 Concentration −8.0,0.607
same,Percent Growth,[2]; Log10 Concentration −8.0,82%
same,GI50,[3],1750 nM
same,TGI,[3],3.13E−06
same,Mean Optical Densities,[3]; Log10 Concentration −4.0,0.015
same,Percent Growth,[3]; Log10 Concentration −4.0,−92%
same,Mean Optical Densities,[3]; Log10 Concentration −5.0,−0.048
same,Percent Growth,[3]; Log10 Concentration −5.0,−100%
same,Mean Optical Densities,[3]; Log10 Concentration −6.0,1.060
same,Percent Growth,[3]; Log10 Concentration −6.0,98%
same,Mean Optical Densities,[3]; Log10 Concentration −7.0,0.993
same,Percent Growth,[3]; Log10 Concentration −7.0,91%
same,Mean Optical Densities,[3]; Log10 Concentration −8.0,0.923
same,Percent Growth,[3]; Log10 Concentration −8.0,83%
same,GI50,[4],1590 nM
same,TGI,[4],2.97E−06
same,Mean Optical Densities,[4]; Log10 Concentration −4.0,0.307
same,Percent Growth,[4]; Log10 Concentration −4.0,−43%
same,Mean Optical Densities,[4]; Log10 Concentration −5.0,0.013
same,Percent Growth,[4]; Log10 Concentration −5.0,−98%
same,Mean Optical Densities,[4]; Log10 Concentration −6.0,1.777
same,Percent Growth,[4]; Log10 Concentration −6.0,87%
same,Mean Optical Densities,[4]; Log10 Concentration −7.0,1.832
same,Percent Growth,[4]; Log10 Concentration −7.0,91%
same,Mean Optical Densities,[4]; Log10 Concentration −8.0,1.867
same,Percent Growth,[4]; Log10 Concentration −8.0,94%
same,GI50,[5],1440 nM
same,TGI,[5],2.74E−06
same,Mean Optical Densities,[5]; Log10 Concentration −4.0,0.272
same,Percent Growth,[5]; Log10 Concentration −4.0,−60%
same,Mean Optical Densities,[5]; Log10 Concentration −5.0,−0.041
same,Percent Growth,[5]; Log10 Concentration −5.0,−100%
same,Mean Optical Densities,[5]; Log10 Concentration −6.0,1.301
same,Percent Growth,[5]; Log10 Concentration −6.0,78%
same,Mean Optical Densities,[5]; Log10 Concentration −7.0,1.338
same,Percent Growth,[5]; Log10 Concentration −7.0,83%
same,Mean Optical Densities,[5]; Log10 Concentration −8.0,1.323
same,Percent Growth,[5]; Log10 Concentration −8.0,81%
same,CC50,[5]; read-out: LC50 (the source's name),5.24 µM
same,GI50,[6],1820 nM
same,Mean Optical Densities,[6]; Log10 Concentration −4.0,0.229
same,Percent Growth,[6]; Log10 Concentration −4.0,−49%
same,Mean Optical Densities,[6]; Log10 Concentration −5.0,0.073
same,Percent Growth,[6]; Log10 Concentration −5.0,−84%
same,Mean Optical Densities,[6]; Log10 Concentration −6.0,1.507
same,Percent Growth,[6]; Log10 Concentration −6.0,97%
same,Mean Optical Densities,[6]; Log10 Concentration −7.0,1.340
same,Percent Growth,[6]; Log10 Concentration −7.0,82%
same,Mean Optical Densities,[6]; Log10 Concentration −8.0,1.467
same,Percent Growth,[6]; Log10 Concentration −8.0,93%
same,TGI,"[6]; MCP7, in M (unit assumed)",3.44E−06
same,GI50,[7],1700 nM
same,Mean Optical Densities,[7]; Log10 Concentration −4.0,0.295
same,Percent Growth,[7]; Log10 Concentration −4.0,−27%
same,Mean Optical Densities,[7]; Log10 Concentration −5.0,−0.073
same,Percent Growth,[7]; Log10 Concentration −5.0,−100%
same,Mean Optical Densities,[7]; Log10 Concentration −6.0,1.444
same,Percent Growth,[7]; Log10 Concentration −6.0,95%
same,Mean Optical Densities,[7]; Log10 Concentration −7.0,1.382
same,Percent Growth,[7]; Log10 Concentration −7.0,89%
same,Mean Optical Densities,[7]; Log10 Concentration −8.0,1.376
same,Percent Growth,[7]; Log10 Concentration −8.0,89%
same,TGI,[7]; in M (unit assumed),3.07E−06
